Measured values as given in patent US20260355323A1, “CEREBLON-RECRUITING BCL-XL/BCL-2 DUAL DEGRADERS” (University of Florida Research Foundation, Incorporated, priority 2022, published 2026).

Key:
[1] = test system: RS4;11 acute lymphoblastic leukemia cells; assay: Cell viability, tetrazolium-based MTS assay, RS4;11; settings: Homo sapiens, RS4;11, 48 h, read-out: Anti-Cancer Activity EC50 (48 hr), RS4
Method: (§1) Acute lymphoblastic leukemia cells (MOLT-4 and RS4;11) were incubated with increasing concentrations of Bcl-xL/Bcl-2 degraders for 48 h. Cell viability was measured by tetrazolium-based MTS assay.

[2] = test system: MOLT-4 acute lymphoblastic leukemia cells; assay: Cell viability, tetrazolium-based MTS assay, MOLT-4; settings: Homo sapiens, MOLT-4, 48 h; read-out: Anti-Cancer Activity EC50 (48 hr), MOLT-4
Method: as §1

WI-38 NC = assay: Senolytic activity, cell viability (PrestoBlue HS), WI-38 NC; type: cell-based; settings: for EC50: Homo sapiens, 72 h
Method: WI-38 and HUVEC cells were incubated with increasing concentrations of degraders for 72 h. Cell viability was measured using PrestoBlue HS cell viability reagent.

Compound | EC50 [1] [nM] | EC50 [2] [nM] | EC50 (WI-38 NC) [nM] | Senolytic Activity EC50 (72 hr), WI-38 NC (WI-38 NC)
C[C@@]1(CN2CCC(CN3CC4CC3CN4c3ccc4c(c3)CN(C3CCC(=O)NC3=O)C4=O)CC2)CCC(c2ccc(Cl)cc2)=C(CN2CCN(c3ccc(C(=O)NS(=O)(=O)c4ccc(N[C@H](CCN5CCCOCC5)CSc5ccccc5)c(S(=O)(=O)C(F)(F)F)c4)cc3)CC2)C1 (stereo partly drawn) [Compound 130, N-((4-(((R)-4-(1,4-oxazepan-4-yl)-1-(phenylthio)butan-2-yl)amino)-3-((trifluoromethyl)sulfonyl)phenyl)sulfonyl)-4-(4-(((4R)-4′-chloro-4-((4-((5-(2-(2,6-dioxopiperidin-3-yl)-1-oxoisoindolin-5-yl)-2,5-diazabicyclo[2.2.1]heptan-2-yl)methyl)piperidin-1-yl)methyl)-4-methyl-3,4,5,6-tetrahydro-[1,1′-biphenyl]-2-yl)methyl)piperazin-1-yl)benzamide] | 1 to 10 | 1 to 10 | > 10000 | 
CN(CC#Cc1ccc2c(c1)CN(C1CCC(=O)NC1=O)C2=O)C[C@]1(C)CCC(c2ccc(Cl)cc2)=C(CN2CCN(c3ccc(C(=O)NS(=O)(=O)c4ccc(N[C@H](CCN5CCCOCC5)CSc5ccccc5)c(S(=O)(=O)C(F)(F)F)c4)cc3)CC2)C1 (stereo partly drawn) [Compound 37, N-((4-(((R)-4-(1,4-oxazepan-4-yl)-1-(phenylthio)butan-2-yl)amino)-3-((trifluoromethyl)sulfonyl)phenyl)sulfonyl)-4-(4-(((4R)-4′-chloro-4-(((3-(2-(2,6-dioxopiperidin-3-yl)-1-oxoisoindolin-5-yl)prop-2-yn-1-yl)(methyl)amino)methyl)-4-methyl-3,4,5,6-tetrahydro-[1,1′-biphenyl]-2-yl)methyl)piperazin-1-yl)benzamide] | 1 to 10 | < 1 | > 10000 | 
C[C@@]1(CN2CCC(CC#Cc3ccc4c(c3)CN(C3CCC(=O)NC3=O)C4=O)CC2)CCC(c2ccc(Cl)cc2)=C(CN2CCN(c3ccc(C(=O)NS(=O)(=O)c4ccc(N[C@H](CCN5CCCOCC5)CSc5ccccc5)c(S(=O)(=O)C(F)(F)F)c4)cc3)CC2)C1 (stereo partly drawn) [Compound 29, N-((4-(((R)-4-(1,4-oxazepan-4-yl)-1-(phenylthio)butan-2-yl)amino)-3-((trifluoromethyl)sulfonyl)phenyl)sulfonyl)-4-(4-(((4R)-4′-chloro-4-((4-(3-(2-(2,6-dioxopiperidin-3-yl)-1-oxoisoindolin-5-yl)prop-2-yn-1-yl)piperidin-1-yl)methyl)-4-methyl-3,4,5,6-tetrahydro-[1,1′-biphenyl]-2-yl)methyl)piperazin-1-yl)benzamide] | < 1 | 1 to 10 | > 10000 | 
C[C@@]1(CN2CCC(C#Cc3ccc4c(c3)CN(C3CCC(=O)NC3=O)C4=O)CC2)CCC(c2ccc(Cl)cc2)=C(CN2CCN(c3ccc(C(=O)NS(=O)(=O)c4ccc(N[C@H](CCN5CCCOCC5)CSc5ccccc5)c(S(=O)(=O)C(F)(F)F)c4)cc3)CC2)C1 (stereo partly drawn) [Compound 132, N-((4-(((R)-4-(1,4-oxazepan-4-yl)-1-(phenylthio)butan-2-yl)amino)-3-((trifluoromethyl)sulfonyl)phenyl)sulfonyl)-4-(4-(((4R)-4′-chloro-4-((4-((2-(2,6-dioxopiperidin-3-yl)-1-oxoisoindolin-5-yl)ethynyl)piperidin-1-yl)methyl)-4-methyl-3,4,5,6-tetrahydro-[1,1′-biphenyl]-2-yl)methyl)piperazin-1-yl)benzamide] | 1 to 10 | < 1 | > 10000 | 
C[C@@]1(CN2CCC(CCN3CCN(c4ccc5c(c4)CN(C4CCC(=O)NC4=O)C5=O)CC3)CC2)CCC(c2ccc(Cl)cc2)=C(CN2CCN(c3ccc(C(=O)NS(=O)(=O)c4ccc(N[C@H](CCN5CCCOCC5)CSc5ccccc5)c(S(=O)(=O)C(F)(F)F)c4)cc3)CC2)C1 (stereo partly drawn) [Compound 65, N-((4-(((R)-4-(1,4-oxazepan-4-yl)-1-(phenylthio)butan-2-yl)amino)-3-((trifluoromethyl)sulfonyl)phenyl)sulfonyl)-4-(4-(((4R)-4′-chloro-4-((4-(2-(4-(2-(2,6-dioxopiperidin-3-yl)-1-oxoisoindolin-5-yl)piperazin-1-yl)ethyl)piperidin-1-yl)methyl)-4-methyl-3,4,5,6-tetrahydro-[1,1′-biphenyl]-2-yl)methyl)piperazin-1-yl)benzamide] | < 1 | < 1 | > 10000 | 
CC1CN(c2ccc3c(c2)CN(C2CCC(=O)NC2=O)C3=O)CC(C)N1CC1CCN(C[C@]2(C)CCC(c3ccc(Cl)cc3)=C(CN3CCN(c4ccc(C(=O)NS(=O)(=O)c5ccc(N[C@H](CCN6CCCOCC6)CSc6ccccc6)c(S(=O)(=O)C(F)(F)F)c5)cc4)CC3)C2)CC1 (stereo partly drawn) [Compound 50, N-((4-(((R)-4-(1,4-oxazepan-4-yl)-1-(phenylthio)butan-2-yl)amino)-3-((trifluoromethyl)sulfonyl)phenyl)sulfonyl)-4-(4-(((4R)-4′-chloro-4-((4-((4-(2-(2,6-dioxopiperidin-3-yl)-1-oxoisoindolin-5-yl)-2,6-dimethylpiperazin-1-yl)methyl)piperidin-1-yl)methyl)-4-methyl-3,4,5,6-tetrahydro-[1,1′-biphenyl]-2-yl)methyl)piperazin-1-8 yl)benzamide] | < 1 | < 1 |  | ++ (100-10 μM)
CC1CN(c2ccc3c(c2)CN(C2CCC(=O)NC2=O)C3=O)CC(C)N1CC1CN(C[C@]2(C)CCC(c3ccc(Cl)cc3)=C(CN3CCN(c4ccc(C(=O)NS(=O)(=O)c5ccc(N[C@H](CCN6CCCOCC6)CSc6ccccc6)c(S(=O)(=O)C(F)(F)F)c5)cc4)CC3)C2)C1 (stereo partly drawn) [Compound 129, N-((4-(((R)-4-(1,4-oxazepan-4-yl)-1-(phenylthio)butan-2-yl)amino)-3-((trifluoromethyl)sulfonyl)phenyl)sulfonyl)-4-(4-(((4R)-4′-chloro-4-((3-((4-(2-(2,6-dioxopiperidin-3-yl)-1-oxoisoindolin-5-yl)-2,6-dimethylpiperazin-1-yl)methyl)azetidin-1-yl)methyl)-4-methyl-3,4,5,6-tetrahydro-[1,1′-biphenyl]-2-yl)methyl)piperazin-1-yl)benzamide] | < 1 | < 1 | > 10000 | 
C[C@@]1(CN2CC(CN3CCN(c4ccc5c(c4)CN(C4CCC(=O)NC4=O)C5=O)CC3)C2)CCC(c2ccc(Cl)cc2)=C(CN2CCN(c3ccc(C(=O)NS(=O)(=O)c4ccc(N[C@H](CCN5CCCOCC5)CSc5ccccc5)c(S(=O)(=O)C(F)(F)F)c4)cc3)CC2)C1 (stereo partly drawn) [Compound 24, N-((4-(((R)-4-(1,4-oxazepan-4-yl)-1-(phenylthio)butan-2-yl)amino)-3-((trifluoromethyl)sulfonyl)phenyl)sulfonyl)-4-(4-(((4R)-4′-chloro-4-((3-((4-(2-(2,6-dioxopiperidin-3-yl)-1-oxoisoindolin-5-yl)piperazin-1-yl)methyl)azetidin-1-yl)methyl)-4-methyl-3,4,5,6-tetrahydro-[1,1′-biphenyl]-2-yl)methyl)piperazin-1-yl)benzamide] | < 1 | 1 to 10 | > 10000 | 
C[C@@]1(CN2CCC(CCc3ccc4c(c3)CN(C3CCC(=O)NC3=O)C4=O)CC2)CCC(c2ccc(Cl)cc2)=C(CN2CCN(c3ccc(C(=O)NS(=O)(=O)c4ccc(N[C@H](CCN5CCCOCC5)CSc5ccccc5)c(S(=O)(=O)C(F)(F)F)c4)cc3)CC2)C1 (stereo partly drawn) [Compound 46, N-((4-(((R)-4-(1,4-oxazepan-4-yl)-1-(phenylthio)butan-2-yl)amino)-3-((trifluoromethyl)sulfonyl)phenyl)sulfonyl)-4-(4-(((4R)-4′-chloro-4-((4-(2-(2-(2,6-dioxopiperidin-3-yl)-1-oxoisoindolin-5-yl)ethyl)piperidin-1-yl)methyl)-4-methyl-3,4,5,6-tetrahydro-[1,1′-biphenyl]-2-yl)methyl)piperazin-1-yl)benzamide] | < 1 | < 1 | > 10000 | 
C[C@@]1(CN2CC(CN3CCCN(c4ccc5c(c4)CN(C4CCC(=O)NC4=O)C5=O)CC3)C2)CCC(c2ccc(Cl)cc2)=C(CN2CCN(c3ccc(C(=O)NS(=O)(=O)c4ccc(N[C@H](CCN5CCCOCC5)CSc5ccccc5)c(S(=O)(=O)C(F)(F)F)c4)cc3)CC2)C1 (stereo partly drawn) [Compound 45, N-((4-(((R)-4-(1,4-oxazepan-4-yl)-1-(phenylthio)butan-2-yl)amino)-3-((trifluoromethyl)sulfonyl)phenyl)sulfonyl)-4-(4-(((4R)-4′-chloro-4-((3-((4-(2-(2,6-dioxopiperidin-3-yl)-1-oxoisoindolin-5-yl)-1,4-diazepan-1-yl)methyl)azetidin-1-yl)methyl)-4-methyl-3,4,5,6-tetrahydro-[1,1′-biphenyl]-2-yl)methyl)piperazin-1-yl)benzamide] | 1 to 10 | 1 to 10 |  | ++ (100-10 μM)
C[C@@]1(CN2CCN(CCC#Cc3ccc4c(c3)CN(C3CCC(=O)NC3=O)C4=O)CC2)CCC(c2ccc(Cl)cc2)=C(CN2CCN(c3ccc(C(=O)NS(=O)(=O)c4ccc(N[C@H](CCN5CCCOCC5)CSc5ccccc5)c(S(=O)(=O)C(F)(F)F)c4)cc3)CC2)C1 (stereo partly drawn) [Compound 40, N-((4-(((R)-4-(1,4-oxazepan-4-yl)-1-(phenylthio)butan-2-yl)amino)-3-((trifluoromethyl)sulfonyl)phenyl)sulfonyl)-4-(4-(((4R)-4′-chloro-4-((4-(4-(2-(2,6-dioxopiperidin-3-yl)-1-oxoisoindolin-5-yl)but-3-yn-1-yl)piperazin-1-yl)methyl)-4-methyl-3,4,5,6-tetrahydro-[1,1′-biphenyl]-2-yl)methyl)piperazin-1-yl)benzamide] | < 1 | < 1 | > 10000 | 
